ChEMBL document CHEMBL1201862, “PubChem BioAssay data set” (2004)
The source made the active and inactive calls.

What was measured:
[1] = viability of uninfected HEp-2 cells – cell-based, HTS, cytotoxicity control for RSV inhibitor project, dose response (AID 2410); assay type: functional; settings: human respiratory syncytial virus
Protein skinhead-1 = molecular target: T1, Protein skinhead-1 (Caenorhabditis elegans, UniProt P34707); assay type: functional
T1 sequence (P34707 whole entry): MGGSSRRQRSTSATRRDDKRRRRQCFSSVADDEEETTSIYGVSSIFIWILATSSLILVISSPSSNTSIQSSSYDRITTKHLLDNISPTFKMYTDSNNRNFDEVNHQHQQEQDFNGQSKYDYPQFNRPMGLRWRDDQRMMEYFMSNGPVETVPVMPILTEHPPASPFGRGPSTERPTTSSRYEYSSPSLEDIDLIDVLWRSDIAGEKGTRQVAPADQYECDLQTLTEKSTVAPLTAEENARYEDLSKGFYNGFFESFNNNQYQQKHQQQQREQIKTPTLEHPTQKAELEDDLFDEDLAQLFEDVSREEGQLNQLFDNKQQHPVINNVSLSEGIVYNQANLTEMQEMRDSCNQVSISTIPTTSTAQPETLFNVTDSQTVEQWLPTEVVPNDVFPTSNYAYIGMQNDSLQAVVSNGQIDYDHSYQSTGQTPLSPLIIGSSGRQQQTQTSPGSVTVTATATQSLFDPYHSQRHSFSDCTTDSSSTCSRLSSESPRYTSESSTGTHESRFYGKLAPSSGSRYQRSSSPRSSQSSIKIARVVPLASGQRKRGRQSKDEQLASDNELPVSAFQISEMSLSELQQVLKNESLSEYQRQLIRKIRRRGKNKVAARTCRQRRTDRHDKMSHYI

[2] = tested on: Streptococcus sp. 'group A'; test: Streptococcus pyogenes SK(-)GAS viability under kanamycin – luminescence, BacTiterGlo, confirmation, counter-screen for streptokinase expression inhibitor project, dose response (AID 1900); assay type: functional, organism-based
Streptokinase A = molecular target: T2, Streptokinase A (Streptococcus pyogenes serotype M1, UniProt P10520); test: viability-normalized secreted streptokinase activity reduction – plasminogen activation absorbance, OD405, dose response (AID 1914); assay type: functional, Streptococcus pyogenes M1 GAS;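 further: secreted streptokinase activity via plasminogen activation per viability signal from cell pellet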
T2 sequence (P10520 whole entry): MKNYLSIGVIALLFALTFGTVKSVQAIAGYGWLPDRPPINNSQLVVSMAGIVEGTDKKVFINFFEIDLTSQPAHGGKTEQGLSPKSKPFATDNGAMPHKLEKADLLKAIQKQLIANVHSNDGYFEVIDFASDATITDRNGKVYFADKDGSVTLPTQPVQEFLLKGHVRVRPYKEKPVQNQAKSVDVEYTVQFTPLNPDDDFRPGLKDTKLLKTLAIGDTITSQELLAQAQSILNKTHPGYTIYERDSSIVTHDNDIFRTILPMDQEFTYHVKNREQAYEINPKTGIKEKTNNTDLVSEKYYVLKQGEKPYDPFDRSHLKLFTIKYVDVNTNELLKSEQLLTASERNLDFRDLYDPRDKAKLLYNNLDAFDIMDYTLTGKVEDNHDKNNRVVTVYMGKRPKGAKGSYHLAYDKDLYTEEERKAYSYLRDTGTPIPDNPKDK

Large T antigen = Large T antigen (Simian virus 40, UniProt P03070); assay type: functional, Betapolyomavirus macacae;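 further: Confirmatory-stage PubChem screen for compounds that inhibit SV40 T antigen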
Streptococcus = test: GAS UMAA2166 growth inhibition – luminescence, BacTiterGlo, counter-screen for streptokinase expression inhibitor project, dose response (AID 1915); assay type: functional, organism-based;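 further: potency for reduction of bacterial viability or growth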
[3] = molecular target: Induced myeloid leukemia cell differentiation protein Mcl-1 (Homo sapiens, UniProt Q07820); assay type: functional
[4] = microbe, parasite or virus in culture; assay type: functional; settings: Mycobacterium tuberculosis
[5] = viability of PTEN-deleted HCT116 cells – cell-based, HCT116 PTEN knockout, dose response (AID 1047); assay type: functional;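 further: HCT116 colon tumor cells with PTEN knocked out; cells exposed to compound for 60 hours before readout; potency for loss of cell viability measured by luminescence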
[6] = viability of HCT116 lacking mutant beta-catenin – cell-based, human colon tumor, dose response (AID 1045); assay type: functional;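 further: HCT116 colon tumor cells with beta catenin knocked out; cells exposed to compound for 60 hours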
H9c2 = test: cells; assay type: functional, cell-based; settings: Rattus norvegicus, H9c2, Myocardium
Nonstructural protein 1 = Nonstructural protein 1 (Influenza A virus, UniProt Q194T2); assay type: functional, Influenza A virus (A/California/07/2009(H1N1))
[7] = molecular target: T3, Histone-lysine N-methyltransferase NSD2 (Homo sapiens, UniProt O96028); assay type: biochemical
T3 sequence (O96028 whole entry): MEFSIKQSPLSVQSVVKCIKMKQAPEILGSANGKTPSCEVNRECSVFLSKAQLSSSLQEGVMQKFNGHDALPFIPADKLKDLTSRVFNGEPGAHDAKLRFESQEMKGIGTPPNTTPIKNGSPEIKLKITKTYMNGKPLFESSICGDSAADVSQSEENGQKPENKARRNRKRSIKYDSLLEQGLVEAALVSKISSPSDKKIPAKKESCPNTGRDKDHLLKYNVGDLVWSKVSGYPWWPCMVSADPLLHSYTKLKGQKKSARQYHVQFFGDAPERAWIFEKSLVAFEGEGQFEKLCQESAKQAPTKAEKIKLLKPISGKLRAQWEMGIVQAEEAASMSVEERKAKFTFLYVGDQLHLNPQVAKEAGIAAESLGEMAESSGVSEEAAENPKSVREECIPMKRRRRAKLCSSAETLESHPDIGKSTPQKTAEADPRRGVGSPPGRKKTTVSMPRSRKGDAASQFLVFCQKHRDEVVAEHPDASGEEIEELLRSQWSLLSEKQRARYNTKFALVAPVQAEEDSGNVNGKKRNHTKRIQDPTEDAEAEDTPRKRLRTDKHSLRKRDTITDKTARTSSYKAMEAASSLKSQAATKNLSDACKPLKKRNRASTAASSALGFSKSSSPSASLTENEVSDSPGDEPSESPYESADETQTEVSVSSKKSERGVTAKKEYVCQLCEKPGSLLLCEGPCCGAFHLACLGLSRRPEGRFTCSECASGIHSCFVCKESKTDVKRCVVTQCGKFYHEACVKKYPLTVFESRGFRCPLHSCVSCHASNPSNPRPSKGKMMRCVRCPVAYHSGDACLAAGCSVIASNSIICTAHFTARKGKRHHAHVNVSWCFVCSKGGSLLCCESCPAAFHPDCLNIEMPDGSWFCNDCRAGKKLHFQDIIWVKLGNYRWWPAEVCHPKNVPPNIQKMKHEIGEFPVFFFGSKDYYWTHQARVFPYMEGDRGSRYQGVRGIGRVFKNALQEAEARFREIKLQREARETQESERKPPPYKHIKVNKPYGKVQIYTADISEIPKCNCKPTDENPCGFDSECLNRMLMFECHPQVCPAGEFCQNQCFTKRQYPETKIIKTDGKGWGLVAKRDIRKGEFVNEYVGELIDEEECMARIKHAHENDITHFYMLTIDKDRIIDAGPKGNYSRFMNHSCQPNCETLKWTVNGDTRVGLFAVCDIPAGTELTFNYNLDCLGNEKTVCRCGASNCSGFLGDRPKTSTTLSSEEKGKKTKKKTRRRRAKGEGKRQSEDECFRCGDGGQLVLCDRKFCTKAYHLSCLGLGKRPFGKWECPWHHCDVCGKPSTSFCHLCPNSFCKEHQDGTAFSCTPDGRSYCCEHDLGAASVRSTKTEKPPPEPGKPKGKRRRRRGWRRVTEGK

[8] = molecular target: DNA dC->dU-editing enzyme APOBEC-3A (Homo sapiens, UniProt P31941); test: Dose Response confirmation of small molecule APOBEC3A DNA Deaminase Inhibitors via a fluorescence-based single-stranded DNA deaminase assay. [Related pubchem assays (depositor defined):AID493011, AID493024]; assay type: functional
[9] = molecular target: DNA dC->dU-editing enzyme APOBEC-3G (Homo sapiens, UniProt Q9HC16); assay type: functional;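 further: Dose-response counterscreen measuring inhibition of APOBEC3G DNA deaminase activity, run while confirming APOBEC3A inhibitors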
[10] = molecular target: T4, Mannose-6-phosphate isomerase (Homo sapiens, UniProt P34949); test: MPI inhibition at elevated mannose 6-phosphate – biochemical, fluorescence intensity, high mannose 6-phosphate, primary screen (AID 1220)
T4 sequence (P34949 whole entry): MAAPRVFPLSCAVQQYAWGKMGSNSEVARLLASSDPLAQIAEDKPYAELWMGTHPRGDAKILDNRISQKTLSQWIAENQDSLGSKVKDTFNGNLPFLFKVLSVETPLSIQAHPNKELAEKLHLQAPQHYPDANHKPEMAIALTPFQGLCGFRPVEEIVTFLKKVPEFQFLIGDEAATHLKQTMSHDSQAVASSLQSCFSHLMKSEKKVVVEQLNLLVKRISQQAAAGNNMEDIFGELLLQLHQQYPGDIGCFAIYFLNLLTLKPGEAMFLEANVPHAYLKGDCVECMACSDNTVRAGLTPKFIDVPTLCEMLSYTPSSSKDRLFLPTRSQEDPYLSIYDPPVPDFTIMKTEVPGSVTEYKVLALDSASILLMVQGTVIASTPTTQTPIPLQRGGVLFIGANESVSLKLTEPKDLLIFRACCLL

[11] = molecular target: T5, Rac GTPase-activating protein 1 (Homo sapiens, UniProt Q9H0H5); test: blockers of MgcRacGAP-driven Rac1 GTP hydrolysis – biochemical, ADP Hunter fluorescence, primary and confirmatory, confirmation (AID 624330); assay type: functional
T5 sequence (Q9H0H5 whole entry): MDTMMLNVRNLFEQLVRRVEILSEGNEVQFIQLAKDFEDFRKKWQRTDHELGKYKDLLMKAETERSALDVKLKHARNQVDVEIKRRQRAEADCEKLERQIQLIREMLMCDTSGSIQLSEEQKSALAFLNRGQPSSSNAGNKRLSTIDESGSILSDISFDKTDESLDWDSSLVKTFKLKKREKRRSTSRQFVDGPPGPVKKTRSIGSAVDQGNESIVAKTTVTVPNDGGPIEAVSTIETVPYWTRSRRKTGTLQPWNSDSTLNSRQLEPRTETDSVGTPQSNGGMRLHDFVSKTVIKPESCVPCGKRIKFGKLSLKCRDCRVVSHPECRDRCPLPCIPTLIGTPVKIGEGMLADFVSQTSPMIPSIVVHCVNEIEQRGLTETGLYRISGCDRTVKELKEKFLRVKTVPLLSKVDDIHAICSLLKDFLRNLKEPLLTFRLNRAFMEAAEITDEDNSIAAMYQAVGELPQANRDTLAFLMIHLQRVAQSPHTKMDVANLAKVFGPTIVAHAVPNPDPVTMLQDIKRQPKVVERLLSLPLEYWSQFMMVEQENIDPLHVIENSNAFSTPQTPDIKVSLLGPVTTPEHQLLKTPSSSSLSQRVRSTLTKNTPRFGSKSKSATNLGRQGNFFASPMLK

Large T antigen, sequence (P03070 whole entry): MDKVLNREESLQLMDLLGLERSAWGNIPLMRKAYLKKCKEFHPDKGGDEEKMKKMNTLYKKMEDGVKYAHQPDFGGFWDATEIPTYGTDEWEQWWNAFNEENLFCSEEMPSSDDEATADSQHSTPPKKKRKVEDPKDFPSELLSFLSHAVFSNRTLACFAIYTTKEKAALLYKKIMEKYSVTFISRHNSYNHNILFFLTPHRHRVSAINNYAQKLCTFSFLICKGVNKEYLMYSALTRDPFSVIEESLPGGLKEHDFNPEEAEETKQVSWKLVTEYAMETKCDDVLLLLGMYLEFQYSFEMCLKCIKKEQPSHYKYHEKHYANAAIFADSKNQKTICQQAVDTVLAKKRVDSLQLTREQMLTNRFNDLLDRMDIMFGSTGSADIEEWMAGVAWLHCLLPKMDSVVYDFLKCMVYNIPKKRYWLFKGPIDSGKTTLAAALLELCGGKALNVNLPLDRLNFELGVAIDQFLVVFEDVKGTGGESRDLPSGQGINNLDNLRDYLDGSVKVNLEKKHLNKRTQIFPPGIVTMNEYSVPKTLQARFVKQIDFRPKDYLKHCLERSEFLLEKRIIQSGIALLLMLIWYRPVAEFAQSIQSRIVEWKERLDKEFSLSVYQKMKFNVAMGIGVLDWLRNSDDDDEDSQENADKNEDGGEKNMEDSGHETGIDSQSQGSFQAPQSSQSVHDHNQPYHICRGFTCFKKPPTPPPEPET
Induced myeloid leukemia cell differentiation protein Mcl-1, sequence (Q07820 whole entry): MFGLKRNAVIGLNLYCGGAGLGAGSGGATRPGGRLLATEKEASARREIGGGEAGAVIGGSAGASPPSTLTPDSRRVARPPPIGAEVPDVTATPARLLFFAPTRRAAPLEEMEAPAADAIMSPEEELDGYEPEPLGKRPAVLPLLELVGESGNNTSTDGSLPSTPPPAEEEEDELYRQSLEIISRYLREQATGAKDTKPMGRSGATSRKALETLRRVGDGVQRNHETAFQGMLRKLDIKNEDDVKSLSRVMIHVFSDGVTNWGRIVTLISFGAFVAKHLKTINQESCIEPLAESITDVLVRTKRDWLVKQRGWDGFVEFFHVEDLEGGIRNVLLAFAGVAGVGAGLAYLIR
DNA dC->dU-editing enzyme APOBEC-3A, sequence (P31941 whole entry): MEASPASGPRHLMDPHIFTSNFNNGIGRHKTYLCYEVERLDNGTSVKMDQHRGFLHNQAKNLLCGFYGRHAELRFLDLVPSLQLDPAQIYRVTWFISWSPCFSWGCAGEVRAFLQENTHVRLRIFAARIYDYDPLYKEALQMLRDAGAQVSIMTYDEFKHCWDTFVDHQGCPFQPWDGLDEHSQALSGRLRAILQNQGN
Nonstructural protein 1, sequence (Q194T2 whole entry): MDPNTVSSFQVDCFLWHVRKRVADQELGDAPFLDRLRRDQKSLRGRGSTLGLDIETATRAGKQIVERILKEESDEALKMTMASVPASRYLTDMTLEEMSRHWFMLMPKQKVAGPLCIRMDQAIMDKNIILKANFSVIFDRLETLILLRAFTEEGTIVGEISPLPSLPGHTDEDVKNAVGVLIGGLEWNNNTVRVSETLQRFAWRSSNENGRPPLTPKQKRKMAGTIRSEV
DNA dC->dU-editing enzyme APOBEC-3G, sequence (Q9HC16 whole entry): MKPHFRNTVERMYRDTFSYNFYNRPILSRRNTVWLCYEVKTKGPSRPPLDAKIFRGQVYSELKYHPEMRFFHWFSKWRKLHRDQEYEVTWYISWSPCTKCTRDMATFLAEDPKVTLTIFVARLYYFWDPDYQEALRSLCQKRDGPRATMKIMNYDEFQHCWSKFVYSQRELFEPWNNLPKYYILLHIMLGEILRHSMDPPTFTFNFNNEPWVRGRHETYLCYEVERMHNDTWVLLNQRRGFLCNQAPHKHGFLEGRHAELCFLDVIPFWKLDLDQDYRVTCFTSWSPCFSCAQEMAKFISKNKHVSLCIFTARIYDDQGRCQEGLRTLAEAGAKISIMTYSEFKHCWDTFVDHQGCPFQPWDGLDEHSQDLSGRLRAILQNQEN

## Cc1c(OC(=O)CNC(=O)OC(C)(C)C)ccc2c3c(c(=O)oc12)CCC3
[1]
  CC50: 36.9 µM (active)
Protein skinhead-1
  IC50: > 100 µM (inactive)

## CC(=O)O[C@H]1C[C@@]2(C)[C@@H](C[C@@H](O)[C@H]3[C@@]4(C)CC[C@@H](O)[C@@H](C)[C@@H]4CC[C@@]32C)/C1=C(\CCC=C(C)C)C(=O)O
[2]
  EC50: 0.161 µM (active)
Streptokinase A
  EC50: 0.362 µM (active)
Large T antigen
  IC50: 20.4 µM (active)
Streptococcus
  EC50: 0.947 µM (active)

## COc1ccc(N2CCN(C(=O)c3ccc(CSc4ccccc4)cc3)CC2)cc1
[3]
  IC50: 4.83 µM (not active)

## CC(C)c1ccc(N(CC(=O)Nc2ccc(S(=O)(=O)N3CCOCC3)cc2)S(C)(=O)=O)cc1
Protein skinhead-1
  IC50: > 100 µM (inactive)

## Cc1cncn1CCc1nc2c3ccccc3nc(SCC(=O)Nc3cccc(Cl)c3)n2n1
[4]
  CC50: 14.3 µM (active)
[5]
  EC50: 13.3 µM (active)
[6]
  EC50: 10.7 µM (active)

## CCOC(=O)c1ccc(NC(=O)c2[nH]cnc2C(=O)NCCCCCNC(=O)OC(C)(C)C)cc1
[2]
  EC50: 3.49 µM (active)
Streptococcus
  EC50: 5.74 µM (active)
H9c2
  IC50: > 79 µM (inactive)

## COc1ccc(NC(=O)CSC2=C(C#N)C(c3ccco3)C(C(=O)Nc3nc4ccccc4s3)=C(C)N2)cc1 (stereo not drawn)
[4]
  CC50: > 40 µM (active)

## Cc1cccc(C(=O)NC(C(=O)Nc2nc(-c3ccccn3)cs2)C(C)C)c1 (stereo not drawn)
[2]
  EC50: 6.29 µM (active)
Streptokinase A
  EC50: > 150 µM (not active)
Streptococcus
  EC50: 17.1 µM (active)
H9c2
  IC50: 8.6 µM (active)

## CN(C)c1cccc2c1C(=O)c1ccccc1C2=O
Nonstructural protein 1
  IC50: 10.1 µM (active)
[7]
  AC50: 5.57 µM (active)

## Clc1ccc(OCc2nc(-c3ccncc3)no2)c(Br)c1
Protein skinhead-1
  IC50: 31.6 µM (active)

## Cc1cccc(C(=O)N[C@H](C(=O)OCc2cc(=O)n3c(n2)sc2ccccc23)C(C)C)c1
[2]
  EC50: 26.2 µM (active)
Streptokinase A
  EC50: > 150 µM (not active)
Streptococcus
  EC50: 40.5 µM (active)
[8]
  IC50: 14.7 µM (active)
[9]
  IC50: 24.5 µM (active)

## Nc1cc2nc[nH]c2cc1N
[3]
  IC50: > 54 µM (not active)
[10]
  IC50: > 50 µM (not active)

## O=C(CCc1nc(O)c2ccccc2n1)OCC(=O)N1CCc2ccccc21
H9c2
  IC50: > 79 µM (inactive)

## CSc1nc(Cl)c(Br)c(N2CC2)n1
H9c2
  IC50: > 79 µM (inactive)

## CN(C(=O)CSCC(=O)Nc1ccc(Cl)cc1)C1CCCCC1
Protein skinhead-1
  IC50: > 100 µM (inactive)

## O=C1N[C@H](Cc2ccccc2)COC(=O)[C@@H](Cc2ccc(F)cc2)C/C=C\C[C@H]1CC(=O)N(CCO)Cc1ccccc1
H9c2
  IC50: > 79 µM (inactive)

## COc1ccc(/C=C2\SC(=O)N(CC(=O)Nc3ccccc3O)C2=O)cc1OC
Protein skinhead-1
  IC50: > 100 µM (inactive)

## CC(C)(C)c1cc(C(=O)N/N=C/c2ccc(O)cc2)n(-c2ccccc2)n1
Large T antigen
  IC50: 46.2 µM (active)
[11]
  IC50: 122 µM (active)

## Oc1ccc(/C=N/Nc2ccc(C(F)(F)F)cn2)cc1O
Large T antigen
  IC50: 48.3 µM (active)

## CCOc1ccc(/C=N/n2nnnc2N)cc1O
Large T antigen
  IC50: 9.64 µM (active)
